Measurements as given in patent EP0411567A1, “5-(omega-Aminoacyl)-5,10-dihydro-11H-dibenzo[b,e][1,4]-diazepin-11-ones, processes for their preparation, and their use as medicaments” (ARZNEIMITTELWERK DRESDEN GmbH, priority 1989, dated 1991).
Structures can show the parent of a compound that is named as a salt. Where two headings read alike, the source gives them in different places.

Assays:
Wistarratten = experiment: Orienting determination of acute toxicity in rats, i.v.; format: in vivo, Ratte; settings: therapeutic breadth; rat LD₅₀ i.v. / rat CaCl₂-arrhythmia ED₅₀
Text: Die Verbindungen der allgemeinen Formeln I, VII bzw.
(§1) ED₅₀ i.v. = Dosis in mg/kg, welche die fibrillatorische Wirkung von CaCl₂ an Ratten nach I.v.-Applikation der Testsubstanz um 50 % unterdrückt. Berechnung nach der Probit-Regressionsanalyse mit Vertrauensbereich, p = 0,05 (Werte in Klammern) LD₅₀ i.v. = Letale Dosis in mg/kg bei 50 % der Versuchstiere einer orientierenden Bestimmung der akuten Toxizität an Wistarratten hauseigener Zucht, I.v.-Applikation in die Schwanzvene, 3 - 4 Dosierungen zu je 10 Tieren.
(§2) Berechnung nach der Probit-Regressionsanalyse mit Vertrauensbereich, p = 0,05 (Werte in Klammern) [formula] zur Ermittlung der therapeutischen Breite eff. Dosis = effektive Dosis in mg/kg Wirkungsdauer = Wirkungsdauer in Minuten an Hunden, 24 h nach zweistufiger Koronarligatur

[1] = test system: Hunden, 24 Stunden nach zweistufiger Koronarligatur (Harris-Modell); experiment: Two-stage coronary ligation in the dog (Harris model); format: in vivo, Hund; settings: for Ektopische Kontraktionen in Prozent/min / Gesamtzahl der Herzkontraktionen/min: mean x; for Harris Hund Wirkungsdauer / Harris Hund eff. Dosis i.v.: dogs, 24 h after two-stage coronary ligation; for Harris Hund Wirkungsdauer: at the effective i.v. dose
Method: Am Modell der zweistufigen Koronarligatur am Hund nach Harris (Methodik bei Kaverina und Mitarbeiter, Pharmazie 40, S. 845 (1985)) zeigen die Verbindungen der allgemeinen Formeln I, VII bzw. X eine starke und langanhaltende Wirkung (siehe Tabellen 2 und 3).
Bereits in der 5. Minute nach der intravenösen Injektion der Verbindungen der allgemeinen Formeln I, VII bzw. X in einer Konzentration von 0,005 mmol/kg (ca. 2,0 mg/kg) wird die ektopischeArrhythmie um das 2- bis 3-fache des Basiswertes unterdrückt, während die Gesamtzahl der Herzkontraktionen konstant bleibt. Die Wirkung auf die ektopische Arrhythmie hält 30 bis 60 Minuten lang an. Tabelle 1
as §2
x = Mittelwert s = Standardabweichung ±

[2] = test system: CaCl₂-Arrhythmie der Ratte; experiment: CaCl₂-induced arrhythmia in the rat (antifibrillatory effect); format: in vivo; settings: iv; for ED50: Rattus norvegicus, read-out: CaCl₂-Arrhythmie Ratte, ED₅₀
Text: as §1

[3] = test system: Hunden, 24 Stunden nach zweistufiger Koronarligatur (Harris-Modell); settings: Harris model, cited from earlier work
[4] = 30 min after 0,005 mmol/kg i.v.
[5] = 60 min after 0,005 mmol/kg i.v.
[6] = 120 min after 0,005 mmol/kg i.v.
[7] = 180 min after 0,005 mmol/kg i.v.
[8] = Basis (before injection), 0,005 mmol/kg group
[9] = dose suppressing the fibrillatory effect of CaCl₂ by 50 %, probit regression, confidence range p = 0,05 in brackets
[10] = 300 min after 0,005 mmol/kg i.v.
[11] = 360 min after 0,005 mmol/kg i.v.
[12] = 5 min after 0,02 mmol/kg (5,4 mg/kg)
[13] = 30 min after 0,02 mmol/kg (5,4 mg/kg)
[14] = Basis (before injection), 0,02 mmol/kg (5,4 mg/kg) group

SMILES	Q LD₅₀/ED₅₀ (Wistarratten)	Ektopische Kontraktionen in Prozent/min ([1]; 5 min after 0,005 mmol/kg i.v.) [Prozent]	Gesamtzahl der Herzkontraktionen/min ([1]; 5 min after 0,005 mmol/kg i.v.) [min⁻¹]	Ektopische Kontraktionen in Prozent/min [1, 4] [Prozent]	Gesamtzahl der Herzkontraktionen/min [1, 4] [min⁻¹]	Ektopische Kontraktionen in Prozent/min [1, 5] [Prozent]	Gesamtzahl der Herzkontraktionen/min [1, 5] [min⁻¹]	Ektopische Kontraktionen in Prozent/min [1, 6] [Prozent]	Gesamtzahl der Herzkontraktionen/min [1, 6] [min⁻¹]	Ektopische Kontraktionen in Prozent/min [1, 8] [Prozent]	Gesamtzahl der Herzkontraktionen/min [1, 8] [min⁻¹]	Harris Hund Wirkungsdauer [1] [min]	Harris Hund eff. Dosis i.v. [1]	ED50 [2, 9] [mg/kg]	also measured
CN(C)CCCCCC(=O)N1c2ccccc2NC(=O)c2ccccc21 [Beispiel 1, 5-(6-Dimethylaminocapronyl)-5,10-dihydro-11H-dibenzo [b,e]-[1,4] diazepin-11-on·HCl]	207	30	192	47	193	54	177	68	175	99	164	60	1,76 mg/kg	0.41	Ektopische Kontraktionen in Prozent/min [1, 7]: 80 Prozent; Gesamtzahl der Herzkontraktionen/min [1, 7]: 169 min⁻¹
CCN(CC)CCCC(=O)N1c2ccccc2NC(=O)c2ccccc21 [Beispiel 2, 5-(4-Diethylaminobutyryl)-5,10-dihydro-11H-dibenzo[b,e]-[1,4]diazepin-11-on]	–	26	–	24	–	75	–	90	–	88	–	–	–	–	–
CCN(CC)CCCC(=O)N1c2ccc(Cl)cc2NC(=O)c2ccccc21 [Beispiel 4, 8-Chlor-5-(4-diethylaminobutyryl)-5,10-dihydro-11H-dibenzo[b,e] [1,4]diazepin-11-on]	1614	–	175	–	180	–	181	–	183	–	183	30	1,93 mg/kg	0.044	–
CCN(CC)CCCCCC(=O)N1c2ccc(Cl)cc2NC(=O)c2ccccc21 [Beispiel 6, 8-Chlor-5-(6-diethylaminocapronyl)-5,10-dihydro-11H-dibenzo[be] [1,4]diazepin-11-on]	86	20	170	4	159	37	162	76	162	78	167	60	2,07 mg/kg	0.44	–
O=C1Nc2cc(Cl)ccc2N(C(=O)CCCCCCN2CCOCC2)c2ccccc21 [Beispiel 9, 8-Chlor-5-(7-N-morpholinoönanthoyl)-5,10-dihydro-11H-dibenzo [b,e] [1,4]diazepin-11-on]	256	21	179	38	164	42	168	42	156	90	156	120	2,21 mg/kg	0.16	Ektopische Kontraktionen in Prozent/min [1, 7]: 73 Prozent; Gesamtzahl der Herzkontraktionen/min [1, 7]: 159 min⁻¹; Ektopische Kontraktionen in Prozent/min [1, 10]: 79 Prozent; Gesamtzahl der Herzkontraktionen/min [1, 10]: 163 min⁻¹; Ektopische Kontraktionen in Prozent/min [1, 11]: 89 Prozent; Gesamtzahl der Herzkontraktionen/min [1, 11]: 180 min⁻¹
C=CC1CN2CCC1CC2C(O)c1ccnc2ccc(OC)cc12 (centres unmarked) [Chinidin]	–	–	–	–	–	–	–	–	–	–	–	–	–	–	CaCl₂-Arrhythmie Ratte, ED₅₀ ([2]; in vivo): 2,7 (2,0 - 3,7) mg/kg; Harris Hund Wirkungsdauer ([3]; dogs, listed as whose dose is marked [1] (literature)): 15 min; Harris Hund eff. Dosis i.v. ([3]; dogs, value marked [1] (Mokler and van Arman 1962)): 10,0 [1] mg/kg; Gesamtzahl der Herzkontraktionen ([3]; in words, literature [1]): Abnahme; ektopische Arrhythmie ([3]; in words, literature [1]): Abnahme
CCN(CC)CC(=O)Nc1c(C)cccc1C [Lidocain, reference compound]	–	–	–	–	–	–	–	–	–	–	–	15	8,0 mg/kg	–	Ektopische Kontraktionen in Prozent/min [1, 12]: 34 Prozent; Gesamtzahl der Herzkontraktionen/min [1, 12]: 139 min⁻¹; Ektopische Kontraktionen in Prozent/min [1, 13]: 78 Prozent; Gesamtzahl der Herzkontraktionen/min [1, 13]: 138 min⁻¹; Ektopische Kontraktionen in Prozent/min [1, 14]: 83 Prozent; Gesamtzahl der Herzkontraktionen/min [1, 14]: 146 min⁻¹; Gesamtzahl der Herzkontraktionen ([1]; in words, Harris model): Abnahme; ektopische Arrhythmie ([1]; in words, Harris model): Abnahme; ED50 [2]: 3.1 mg/kg
